A short description of this assay: Antioxidant effect: DPPH free radical scavenging test. The following applies: treatment concentration 0.0005%; positive control. As to the method: The following assay test method was performed by applying the decrease in absorbance at 517 nm wavelength. […] After leaving the prepared sample at room temperature for 15 minutes, absorbance was measured at a wavelength of a 517 nm using a microplate reader. […] In addition, the positive control of this experimental example was prepared by mixing 1 ml of ascorbic acid (10 ppm) solution diluted in methanol and 1 ml of DPPH.
Background: The DPPH test is a chemical assay of radical scavenging.

As for `O=C1O[C@H]([C@@H](O)CO)C(O)=C1O` [Ascorbic acid, ascorbic acid], the “DPPF radical scavenging activity” value was 91.36 ± 0.13%.

Values taken from US20220378691A1, “Cosmetic composition comprising fermented product of Nuruk” (DAEBONG LS, LTD, priority 2021, published 2022).
